SMILES strings stand for the structures.

The IC50 is the concentration that gives 50% inhibition. Read a high IC50 as a need for much substance. What is called viability is a read-out of living cells in per cent, often relative to untreated cells.

Data set [1] has as its system A549. The data set is described as follows: CCK8 cell viability assay, A549. The format is cell-based, Human. To be noted: for IC50: A549, 48 h, CCK8, mean ± SE. The procedure:
(§1) At first, CCK8 assay was carried out to evaluate the anti-proliferative activity of dolutegravir-1,2,3-triazole derivatives against different cancer cell lines. The results of cell viability of three lung cancer cell lines A549, PC-9 and H460 in the presence of compounds 9 and 10 are summarized in Table 2. Cells were treated with different compounds at the concentration of 20 µM for 48 h. […] Human lung cancer cell lines A549, PC-9 and H460 were all obtained from ATCC. Cells were cultured in DMEM or RPMI 1640 medium containing 10% FBS and 1% penicillin/streptomycin at 37 °C with a 5% CO2-humidified atmosphere. CCK8 assay was used to measure cell viability. Cells with a density of 1 × 10^4 cells/well were seeded on the 96-well plates. After adhesion, cells were treated with different diluted compounds or vehicle control DMSO and continue cultured for 48 h. Then, CCK8 reagent was added for one hour incubation at 37 °C with 5% of CO2. Absorbance was measured using a microplate spectrophotometer (Thermo) at 450 nm. The ratio of cell viability of control was taken as 100%. […] Then IC50 of the compounds were investigated using the prism statistical software.

The test system of data set [2] is PC-9. The data set is described as follows: CCK8 cell viability assay, PC-9. To be noted: for IC50: PC9, 48 h, CCK8, mean ± SE. The format is cell-based, Human. The procedure: as §1
Data set [3] concerns H460. The data set is described as follows: CCK8 cell viability assay, H460. The format is cell-based, Human. To be noted: for IC50: H460, 48 h, CCK8, mean ± SE. The procedure:
as §1
For orientation: Tetrazolium assays rely on reduction of a dye to a coloured formazan, in cell work by metabolically active cells.

Data set [4] deals with HRM (Human Renal Mesangial) cell line. The data set is described as follows: CCK8 cell viability assay, HRM normal cells (toxicity control). To be noted: HRM normal human cells, 48 h, CCK8, mean ± SE. The format is cell-based. The procedure: Based on these preliminary results, compounds 9c, 9e, 9f, 9i, 9k, 9 L, 9p, 9q, 9t, 9u, 9v, 9w, 10c, 10e which were effective to most of the cell lines were chosen for the measurement of the half-maximal inhibitory concentration (IC50). […] HRM (Human Renal Mesangial) cell line was used as a control to study the toxicity of these compounds against normal human cells.
CCK8 assay was used to measure cell viability. Cells with a density of 1 × 10^4 cells/well were seeded on the 96-well plates. After adhesion, cells were treated with different diluted compounds or vehicle control DMSO and continue cultured for 48 h. Then, CCK8 reagent was added for one hour incubation at 37 °C with 5% of CO2. Absorbance was measured using a microplate spectrophotometer (Thermo) at 450 nm. The ratio of cell viability of control was taken as 100%. […] Then IC50 of the compounds were investigated using the prism statistical software.

Details of data set [5]: method as in PMID 35111871. To be noted: preclinical study, dose 27 times greater than the clinical dose; cited from earlier work.
Where [6] appears, read: A549, 20 µM, 48 h, CCK8, control = 100%.
Setting [7] is: PC9, 20 µM, 48 h, CCK8, control = 100%.
Setting [8] is: H460, 20 µM, 48 h, CCK8, control = 100%.

Consider `CCc1ccccc1-n1cc(-c2cccc(NC(=O)c3cn4c(c(OC)c3=O)C(=O)N3[C@H](C)CCO[C@H]3C4)c2)nn1` [Compound 9k], for which the entries for the “Cell viability (100%)” value in data set [1] (setting [6]), in data set [2] (setting [7]) and in data set [3] (setting [8]) were 83.48%, 23.40% and 18.72%, respectively. Further, the IC50 in data set [1] is 20.7 ± 0.23 µM; in data set [2], 9.87 ± 0.19 µM; in data set [3], 12.9 ± 0.8 µM; in data set [4], greater than 50 µM.
Regarding `COc1c2n(cc(C(=O)Nc3cccc(-c4cn(-c5ccccc5Cl)nn4)c3)c1=O)C[C@@H]1OCC[C@@H](C)N1C2=O` [Compound 9v], the “Cell viability (100%)” value in data set [1] (setting [6]) was 54.06%; in data set [2] (setting [7]) it was 47.42%; in data set [3] (setting [8]) it was 38.13%. Moreover, the IC50 in data set [1] was greater than 50 µM; in data set [2], 11.6 ± 0.48 µM; in data set [3], 16.2 ± 1.29 µM; in data set [4] it was greater than 50 µM.
With `COc1c2n(cc(C(=O)Nc3cccc(-c4cn(-c5ccccc5C(F)(F)F)nn4)c3)c1=O)C[C@@H]1OCC[C@@H](C)N1C2=O` [Compound 9c], the “Cell viability (100%)” value came out at 9.48% in data set [1] (setting [6]), 13.91% in data set [2] (setting [7]) and 32.97% in data set [3] (setting [8]). Besides, the IC50 in data set [1] is 9.06 ± 0.88 µM; in data set [2], 4.03 ± 0.59 µM; in data set [3], 11.4 ± 0.59 µM; in data set [4] it was greater than 50 µM.
On to `COc1ccccc1-n1cc(-c2cccc(NC(=O)c3cn4c(c(OC)c3=O)C(=O)N3[C@H](C)CCO[C@H]3C4)c2)nn1` [Compound 9t], for which the figures for the “Cell viability (100%)” value in data set [1] (setting [6]), in data set [2] (setting [7]) and in data set [3] (setting [8]) were 7.32%, 4.56% and 3.27%, respectively. The IC50 is 17.3 ± 0.73 µM in data set [1], 6.75 ± 1.43 µM in data set [2], 14.2 ± 0.16 µM in data set [3] and greater than 50 µM in data set [4].
For `C[C@@H]1CCO[C@H]2Cn3cc(C(=O)NCc4ccc(F)cc4F)c(=O)c(O)c3C(=O)N12` [DTG, Dolutegravir], the viability at 20 µM stood at 109% in data set [1] (Homo sapiens, A549, 20 µM, 48 h, CCK8, control = 100%); 91.7% in data set [2] (Homo sapiens, PC-9, PC9, 20 µM, 48 h, CCK8, control = 100%); 27.2% in data set [3] (Homo sapiens, NCI-H460, H460, 20 µM, 48 h, CCK8, control = 100%). The “fertility and teratogenic toxicity” value in data set [5] is reported as “no obvious fertility toxicity or teratogenic toxicity”.
As to `COc1c2n(cc(C(=O)Nc3cccc(-c4cn(-c5cccc(C)c5)nn4)c3)c1=O)C[C@@H]1OCC[C@@H](C)N1C2=O` [Compound 9f], the “Cell viability (100%)” value in data set [1] (setting [6]) was 33.47%; in data set [2] (setting [7]), 8.80%; in data set [3] (setting [8]), 39.20%. In addition, the IC50 in data set [1] was 27.8 ± 0.56 µM; in data set [2] it was 4.67 ± 0.26 µM; in data set [3] it was 19.6 ± 0.32 µM; in data set [4] it was greater than 50 µM.
As to `COc1cccc(-n2cc(-c3cccc(NC(=O)c4cn5c(c(OC)c4=O)C(=O)N4[C@H](C)CCO[C@H]4C5)c3)nn2)c1` [Compound 9 L], the “Cell viability (100%)” value in data set [1] (setting [6]) is on record as 73.36%; in data set [2] (setting [7]) it was 47.77%; in data set [3] (setting [8]), 20.32%. Besides, the IC50 in data set [1] was determined as 44.3 ± 1.21 µM; in data set [2], 9.2 ± 0.65 µM; in data set [3], 25.5 ± 0.43 µM; in data set [4], 43.3 ± 3.27 µM.
Consider `COc1c2n(cc(C(=O)Nc3cccc(-c4cn(-c5ccccc5OC(F)(F)F)nn4)c3)c1=O)C[C@@H]1OCC[C@@H](C)N1C2=O` [Compound 9i], for which the entries for the “Cell viability (100%)” value in data set [1] (setting [6]), in data set [2] (setting [7]) and in data set [3] (setting [8]) were 17.41%, 18.95% and 8.52%, respectively. In addition, the IC50 was 11.1 ± 1.07 µM in data set [1], 4.53 ± 0.31 µM in data set [2], 8.24 ± 2.06 µM in data set [3] and greater than 50 µM in data set [4].
